The source of these data is patent EP4722212A1, “NOVEL COMPOUND FOR INHIBITING PROTEIN KINASES AND PHARMACEUTICAL COMPOSITION COMPRISING SAME” (Magicbullettherapeutics Co., Ltd., priority 2023, dated 2024).

Assay [1] relates to C4-2B. Description: Cell line inhibition analysis (CCK-8, 72 h). Type of assay: cell-based. The settings on record: read-out: Cell growth inhibition GI50 C4-2B. On the procedure:
C4-2B and 22Rv1 cells were purchased from ATCC and cultured according to the manufacturer's instructions. The cells were seeded in 96-well plates at 7×10^3cells/100 µl/well and allowed to attach for one day. After removing the culture medium, 90 µl/well of fresh culture medium was added, followed by addition of 10 µl/well of culture medium containing compounds at nine concentrations (0.076-500 µM) serially diluted 3-fold and DMSO control to achieve final concentrations of 0-50 µM, and then cultured for 72 hours in a 37 °C CO2 incubator. Cell proliferation after 72 hours was assessed by adding 10 µl/well of CCK-8 solution, orbital shaking for 30 seconds, then incubating at 37 °C CO2 incubator for 2 hours and measuring absorbance at 450 nm using a microplate reader. The measured absorbance values were corrected by subtracting the absorbance of wells containing only culture medium and CCK-8 solution, and GI50 values were calculated using GraphPad Prism 8 software.
Meanwhile, in a separate 96-well plate, cells were seeded at 7 × 10^3 cells/100 µl/well, allowed to attach for one day, CCK-8 solution was added, and absorbance was measured to establish the 'Growth (%) = 0' value.

In assay [2] the target is T1, ACK1 (Homo sapiens, UniProt Q07912).
T1 construct: purchased Reaction Biology (RBC)
T1 sequence (Q07912 whole entry): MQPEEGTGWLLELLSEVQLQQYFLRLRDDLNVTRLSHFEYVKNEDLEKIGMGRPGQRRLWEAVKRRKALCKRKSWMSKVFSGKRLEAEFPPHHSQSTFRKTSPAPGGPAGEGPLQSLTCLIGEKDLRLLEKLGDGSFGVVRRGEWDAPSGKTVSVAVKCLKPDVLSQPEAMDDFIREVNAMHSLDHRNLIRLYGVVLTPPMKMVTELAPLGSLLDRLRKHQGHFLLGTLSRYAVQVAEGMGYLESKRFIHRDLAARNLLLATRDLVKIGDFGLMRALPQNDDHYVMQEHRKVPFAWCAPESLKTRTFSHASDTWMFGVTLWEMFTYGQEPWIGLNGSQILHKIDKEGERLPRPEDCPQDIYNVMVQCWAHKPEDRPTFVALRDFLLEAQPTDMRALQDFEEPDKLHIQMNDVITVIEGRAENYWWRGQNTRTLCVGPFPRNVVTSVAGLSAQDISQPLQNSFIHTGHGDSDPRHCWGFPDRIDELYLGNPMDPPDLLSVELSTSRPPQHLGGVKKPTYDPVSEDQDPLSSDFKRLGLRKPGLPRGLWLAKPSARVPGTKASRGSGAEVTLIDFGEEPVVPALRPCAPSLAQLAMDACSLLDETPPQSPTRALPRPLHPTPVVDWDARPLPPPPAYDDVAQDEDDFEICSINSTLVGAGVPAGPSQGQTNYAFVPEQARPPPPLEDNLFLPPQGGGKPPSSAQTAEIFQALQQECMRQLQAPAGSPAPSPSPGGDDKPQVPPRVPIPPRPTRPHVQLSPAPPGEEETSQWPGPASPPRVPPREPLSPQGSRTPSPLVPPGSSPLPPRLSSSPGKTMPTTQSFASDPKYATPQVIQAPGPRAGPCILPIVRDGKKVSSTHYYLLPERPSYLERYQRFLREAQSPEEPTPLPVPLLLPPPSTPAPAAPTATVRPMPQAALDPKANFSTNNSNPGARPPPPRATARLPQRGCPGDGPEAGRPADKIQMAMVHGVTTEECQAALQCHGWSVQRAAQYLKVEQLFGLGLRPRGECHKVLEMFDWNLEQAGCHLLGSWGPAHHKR
Description: Enzyme activity inhibition (Reaction Biology). The assay is classed as biochemical. On the procedure:
[* <10 nM: A, <100 nM: B, >100 nM: C]. [Table 7]

As usually defined, the GI50 is the concentration at which growth is held to half of that of the control. Turning to `Cc1ccc(NC(=O)c2ccc(F)c(F)c2)cc1N1Cc2cnc(N)nc2C2(CC2)C1=O` [Compound 9, N-(3-(2'-amino-7'-oxo-5'H-spiro[cyclopropane-1,8'-pyrido[4,3-d]pyrimidine]-6'(7'H)-yl)-4-methylphenyl)-3,4-difluorobenzamide], the GI50 in assay [1] was over 10 µM. The same measure, in the same setting: to `Cc1ccc(NC(=O)c2ccc(F)c(F)c2)cc1N1Cc2cnc(NC3CC3)nc2C2(CC2)C1=O` [Compound 10, N-(3-(2'-(cyclopropylamino)-7'-oxo-5'H-spiro[cyclopropane-1,8'-pyrido[4,3-d]pyrimidine]-6'(7'H)-yl)-4-methylphenyl)-3,4-difluorobenzamide] belongs over 10 µM; to `Cc1ccc(NC(=O)c2cc(F)cc(F)c2)cc1N1Cc2cnc(NC3CC3)nc2C2(CC2)C1=O` [Compound 11, N-(3-(2'-(cyclopropylamino)-7'-oxo-5'H-spiro[cyclopropane-1,8'-pyrido[4,3-d]pyrimidine]-6'(7'H)-yl)-4-methylphenyl)-3,5-difluorobenzamide], over 10 µM. Still for that read-out and setting: in the case of `Cc1ccc(NC(=O)c2ccc(C)c(C(F)(F)F)c2)cc1N1Cc2cnc(NC3CC3)nc2C2(CC2)C1=O` [Compound 12, N-(3-(2'-(cyclopropylamino)-7'-oxo-5'H-spiro[cyclopropane-1,8'-pyrido[4,3-d]pyrimidine]-6'(7'H)-yl)-4-methylphenyl)-4-methyl-3-(trifluoromethyl)benzamide] it was 1 to 5 µM; in that of `Cc1ccc(NC(=O)c2cc(Br)cc(C(F)(F)F)c2)cc1N1Cc2cnc(NC3CC3)nc2C2(CC2)C1=O` [Compound 13, 3-bromo-N-(3-(2'-(cyclopropylamino)-7'-oxo-5'H-spiro[cyclopropane-1,8'-pyrido[4,3-d]pyrimidine]-6'(7'H)-yl)-4-methylphenyl)-5-(trifluoromethyl)benzamide], over 10 µM; in that of `Cc1ccc(NC(=O)c2ccc(F)cc2F)cc1N1Cc2cnc(N)nc2C2(CC2)C1=O` [Compound 14, N-(3-(2'-amino-7'-oxo-5'H-spiro[cyclopropane-1,8'-pyrido[4,3-d]pyrimidine]-6'(7'H)-yl)-4-methylphenyl)-2,4-difluorobenzamide], over 10 µM. `Cc1ccc(NC(=O)c2cc(F)cc(F)c2)cc1N1Cc2cnc(N)nc2C2(CC2)C1=O` [Compound 15, N-(3-(2'-amino-7'-oxo-5'H-spiro[cyclopropane-1,8'-pyrido[4,3-d]pyrimidine]-6'(7'H)-yl)-4-methylphenyl)-3,5-difluorobenzamide]: the GI50 in assay [1] was in the range of 5 to 10 µM.

Take `COc1cccc(C(=O)Nc2ccc(C)c(N3Cc4cnc(N)nc4C4(CC4)C3=O)c2)c1` [Compound 16, N-(3-(2'-amino-7'-oxo-5'H-spiro[cyclopropane-1,8'-pyrido[4,3-d]pyrimidine]-6'(7'H)-yl)-4-methylphenyl)-3-methoxybenzamide]: in assay [1], the GI50 is over 10 µM. Take `Cc1ccc(NC(=O)c2cc(C(F)(F)F)cc(Cl)c2F)cc1N1Cc2cnc(N)nc2C2(CC2)C1=O` [Compound 17, N-(3-(2'-amino-7'-oxo-5'H-spiro[cyclopropane-1,8'-pyrido[4,3-d]pyrimidine]-6'(7'H)-yl)-4-methylphenyl)-3-chloro-2-fluoro-5-(trifluoromethyl)benzamide]: the GI50 in assay [1] is over 10 µM. Turning to `Cc1ccc(NC(=O)c2cc(C(F)(F)F)ccc2F)cc1N1Cc2cnc(N)nc2C2(CC2)C1=O` [Compound 18, N-(3-(2'-amino-7'-oxo-5'H-spiro[cyclopropane-1,8'-pyrido[4,3-d]pyrimidine]-6'(7'H)-yl)-4-methylphenyl)-2-fluoro-5-(trifluoromethyl)benzamide], the GI50 in assay [1] is over 10 µM. The same measure, in the same setting: in the case of `Cc1ccc(NC(=O)c2cccc(C(F)(F)F)n2)cc1N1Cc2cnc(N)nc2C2(CC2)C1=O` [Compound 21, N-(3-(2'-amino-7'-oxo-5'H-spiro[cyclopropane-1,8'-pyrido[4,3-d]pyrimidine]-6'(7'H)-yl)-4-methylphenyl)-6-(trifluoromethyl)picolinamide] it was over 10 µM; in that of `Cc1ccc(NC(=O)c2ccnc(C(F)(F)F)c2)cc1N1Cc2cnc(N)nc2C2(CC2)C1=O` [Compound 22, N-(3-(2'-amino-7'-oxo-5'H-spiro[cyclopropane-1,8'-pyrido[4,3-d]pyrimidine]-6'(7'H)-yl)-4-methylphenyl)-2-(trifluoromethyl)isonicotinamide], over 10 µM. On the same count and under the same terms, in the case of `Cc1ccc(NC(=O)c2cc(O)cc(C(F)(F)F)c2)cc1N1Cc2cnc(N)nc2C2(CC2)C1=O` [Compound 23, N-(3-(2'-amino-7'-oxo-5'H-spiro[cyclopropane-1,8'-pyrido[4,3-d]pyrimidine]-6'(7'H)-yl)-4-methylphenyl)-3-hydroxy-5-(trifluoromethyl)benzamide] it was 5 to 10 µM; in that of `Cc1ccc(NC(=O)c2cc(F)cc(C(F)(F)F)c2)cc1N1Cc2cnc(NC3CC3)nc2C2(CC2)C1=O` [Compound 27, N-(3-(2'-(cyclopropylamino)-7'-oxo-5'H-spiro[cyclopropane-1,8'-pyrido[4,3-d]pyrimidine]-6'(7'H)-yl)-4-methylphenyl)-3-fluoro-5-(trifluoromethyl)benzamide], 5 to 10 µM.

As to `COCCN(C)c1cc(C(=O)Nc2ccc(C)c(N3Cc4cnc(NC5CC5)nc4C4(CC4)C3=O)c2)cc(C(F)(F)F)c1` [Compound 30, N-(3-(2'-(cyclopropylamino)-7'-oxo-5'H-spiro[cyclopropane-1,8'-pyrido[4,3-d]pyrimidine]-6'(7'H)-yl)-4-methylphenyl)-3-((2-methoxyethyl)(methyl)amino)-5-(trifluoromethyl)benzamide], the GI50 in assay [1] lay within 1 to 5 µM. Take `Cc1ccc(NC(=O)c2cc(N3CCN(C)CC3)cc(C(F)(F)F)c2)cc1N1Cc2cnc(NC3CC3)nc2C2(CC2)C1=O` [Compound 32, N-(3-(2'-(cyclopropylamino)-7'-oxo-5'H-spiro[cyclopropane-1,8'-pyrido[4,3-d]pyrimidine]-6'(7'H)-yl)-4-methylphenyl)-3-(4-methylpiperazin-1-yl)-5-(trifluoromethyl)benzamide]: the GI50 in assay [1] fell in the range of 1 to 5 µM.

For `Cc1ccc(NC(=O)c2cc(N3CCN(C)CC3)cc(C(F)(F)F)c2)cc1N1Cc2cnc(N)nc2C2(CC2)C1=O` [Compound 33, N-(3-(2'-amino-7'-oxo-5'H-spiro[cyclopropane-1,8'-pyrido[4,3-d]pyrimidine]-6'(7'H)-yl)-4-methylphenyl)-3-(4-methylpiperazin-1-yl)-5-(trifluoromethyl)benzamide], the GI50 in assay [1] was 5 to 10 µM. With `Cc1ccc(NC(=O)c2cc(N3CCNCC3)cc(C(F)(F)F)c2)cc1N1Cc2cnc(N)nc2C2(CC2)C1=O` [Compound 34, N-(3-(2'-amino-7'-oxo-5'H-spiro[cyclopropane-1,8'-pyrido[4,3-d]pyrimidine]-6'(7'H)-yl)-4-methylphenyl)-3-(piperazin-1-yl)-5-(trifluoromethyl)benzamide], the GI50 in assay [1] was 5 to 10 µM. Still for that read-out and setting: in the case of `Cc1ccc(NC(=O)c2cc(N3CCNCC3)cc(C(F)(F)F)c2)cc1N1Cc2cnc(NC3CC3)nc2C2(CC2)C1=O` [Compound 35, N-(3-(2'-(cyclopropylamino)-7'-oxo-5'H-spiro[cyclopropane-1,8'-pyrido[4,3-d]pyrimidine]-6'(7'H)-yl)-4-methylphenyl)-3-(piperazin-1-yl)-5-(trifluoromethyl)benzamide] it was 5 to 10 µM. On the same count and under the same terms, to `Cc1ccc(NC(=O)c2cc(N(C)CCN(C)C)cc(C(F)(F)F)c2)cc1N1Cc2cnc(NC3CC3)nc2C2(CC2)C1=O` [Compound 36, N-(3-(2'-(cyclopropylamino)-7'-oxo-5'H-spiro[cyclopropane-1,8'-pyrido[4,3-d]pyrimidine]-6'(7'H)-yl)-4-methylphenyl)-3-((2-(dimethylamino)ethyl)(methyl)amino)-5-(trifluoromethyl)benzamide] belongs 5 to 10 µM; to `Cc1ccc(NC(=O)c2cc(N(C)CCN(C)C)cc(C(F)(F)F)c2)cc1N1Cc2cnc(N)nc2C2(CC2)C1=O` [Compound 37, N-(3-(2'-amino-7'-oxo-5'H-spiro[cyclopropane-1,8'-pyrido[4,3-d]pyrimidine]-6'(7'H)-yl)-4-methylphenyl)-3-((2-(dimethylamino)ethyl)(methyl)amino)-5-(trifluoromethyl)benzamide], over 10 µM. Usually IC50 stands for the point on the concentration scale where inhibition reaches its midpoint. Low readings indicate greater potency in that assay, high ones weaker potency in that assay. `Cc1ccc(NC(=O)c2cccc(C(F)(F)F)c2)cc1N1Cc2cnc(NO)nc2C2(CC2)C1=O` [Compound 70, N-(3-(2'-(hydroxyamino)-7'-oxo-5'H-spiro[cyclopropane-1,8'-pyrido[4,3-d]pyrimidine]-6'(7'H)-yl)-4-methylphenyl)-3-(trifluoromethyl)benzamide] yielded an IC50 in assay [2] of 0.01 to 0.1 µM.
